Data: ChEMBL document CHEMBL1138574, “Regioselective synthesis and stereochemical structure of anti-tumor active dispiro[3H-indole-3,2'-pyrrolidine-3',3''-piperidine]-2(1H),4''-diones” (2009)

Assays:
Type in all cases: functional
[1] = tested on: EKVX; test: Antitumor activity against human EKVX cells assessed as cell growth at 10 uM after 48 hrs by sulforhodamine B assay; settings: read-out: Activity
[2] = tested on: HOP-62; test: Antitumor activity against human HOP62 cells assessed as cell growth at 10 uM after 48 hrs by sulforhodamine B assay; settings: HOP-62, 48 h, read-out: Activity
[3] = tested on: NCI-H226; test: Antitumor activity against human NCI-H226 cells assessed as cell growth at 10 uM after 48 hrs by sulforhodamine B assay; settings: NCI-H226, 48 h, read-out: Activity
[4] = tested on: NCI-H23; test: Antitumor activity against human NCI-H23 cells assessed as cell growth at 10 uM after 48 hrs by sulforhodamine B assay; settings: NCI-H23, 48 h, read-out: Activity
[5] = tested on: NCI-H522; test: Antitumor activity against human NCI-H522 cells assessed as cell growth at 10 uM after 48 hrs by sulforhodamine B assay; settings: NCI-H522, 48 h, read-out: Activity
[6] = tested on: HCT-116; test: Antitumor activity against human HCT116 cells assessed as cell growth at 10 uM after 48 hrs by sulforhodamine B assay; settings: HCT-116, 48 h, read-out: Activity
[7] = tested on: HCT-15; test: Antitumor activity against human HCT15 cells assessed as cell growth at 10 uM after 48 hrs by sulforhodamine B assay; settings: HCT-15, 48 h, read-out: Activity
[8] = tested on: HT-29; test: Antitumor activity against human HT-29 cells assessed as cell growth at 10 uM after 48 hrs by sulforhodamine B assay; settings: HT-29, 48 h, read-out: Activity
[9] = tested on: KM12; test: Antitumor activity against human KM12 cells assessed as cell growth at 10 uM after 48 hrs by sulforhodamine B assay; settings: KM12, 48 h, read-out: Activity
[10] = tested on: SW-620; test: Antitumor activity against human SW620 cells assessed as cell growth at 10 uM after 48 hrs by sulforhodamine B assay; settings: SW-620, 48 h, read-out: Activity
[11] = tested on: MDA-MB-231; test: Antitumor activity against human MDA-MB-231 cells assessed as cell growth at 10 uM after 48 hrs by sulforhodamine B assay; settings: MDA-MB-231, 48 h, read-out: Activity
[12] = tested on: MDA-MB-468; test: Antitumor activity against human MDA-MB-468 cells assessed as cell growth at 10 uM after 48 hrs by sulforhodamine B assay; settings: MDA-MB-468, 48 h, read-out: Activity
[13] = tested on: NCI/ADR-RES; test: Antitumor activity against human NCI/ADR-RES cells assessed as cell growth at 10 uM after 48 hrs by sulforhodamine B assay; settings: read-out: Activity
[14] = tested on: T47D; test: Antitumor activity against human T47D cells assessed as cell growth at 10 uM after 48 hrs by sulforhodamine B assay; settings: read-out: Activity
[15] = tested on: IGROV-1; test: Antitumor activity against human IGROV1 cells assessed as cell growth at 10 uM after 48 hrs by sulforhodamine B assay; settings: IGROV-1, 48 h, read-out: Activity
[16] = tested on: OVCAR-4; test: Antitumor activity against human OVCAR4 cells assessed as cell growth at 10 uM after 48 hrs by sulforhodamine B assay; settings: OVCAR-4, 48 h, read-out: Activity
[17] = tested on: OVCAR-5; test: Antitumor activity against human OVCAR5 cells assessed as cell growth at 10 uM after 48 hrs by sulforhodamine B assay; settings: OVCAR-5, 48 h, read-out: Activity
[18] = tested on: HL-60(TB); test: Antitumor activity against human HL-60(TB) cells assessed as cell growth at 10 uM after 48 hrs by sulforhodamine B assay; settings: HL-60, 48 h, read-out: Activity
[19] = tested on: MOLT-4; test: Antitumor activity against human MOLT4 cells assessed as cell growth at 10 uM after 48 hrs by sulforhodamine B assay; settings: MOLT-4, 48 h, read-out: Activity
[20] = tested on: A498; test: Antitumor activity against human A498 cells assessed as cell growth at 10 uM after 48 hrs by sulforhodamine B assay; settings: A498, 48 h, read-out: Activity
[21] = tested on: ACHN; test: Antitumor activity against human ACHN cells assessed as cell growth at 10 uM after 48 hrs by sulforhodamine B assay; settings: read-out: Activity
[22] = tested on: RXF 393; test: Antitumor activity against human RXF393 cells assessed as cell growth at 10 uM after 48 hrs by sulforhodamine B assay; settings: RXF 393, 48 h, read-out: Activity
[23] = tested on: SN12C; test: Antitumor activity against human SN12C cells assessed as cell growth at 10 uM after 48 hrs by sulforhodamine B assay; settings: read-out: Activity
[24] = tested on: UO-31; test: Antitumor activity against human UO31 cells assessed as cell growth at 10 uM after 48 hrs by sulforhodamine B assay; settings: UO-31, 48 h, read-out: Activity
[25] = tested on: Malme-3M; test: Antitumor activity against human MALME-3M cells assessed as cell growth at 10 uM after 48 hrs by sulforhodamine B assay; settings: read-out: Activity
[26] = tested on: SK-MEL-2; test: Antitumor activity against human SK-MEL-2 cells assessed as cell growth at 10 uM after 48 hrs by sulforhodamine B assay; settings: SK-MEL-2, 48 h, read-out: Activity
[27] = tested on: SK-MEL-28; test: Antitumor activity against human SK-MEL-28 cells assessed as cell growth at 10 uM after 48 hrs by sulforhodamine B assay; settings: SK-MEL-28, 48 h, read-out: Activity
[28] = tested on: UACC-257; test: Antitumor activity against human UACC257 cells assessed as cell growth at 10 uM after 48 hrs by sulforhodamine B assay; settings: UACC-257, 48 h, read-out: Activity
[29] = tested on: UACC-62; test: Antitumor activity against human UACC62 cells assessed as cell growth at 10 uM after 48 hrs by sulforhodamine B assay; settings: UACC-62, 48 h, read-out: Activity
[30] = tested on: PC-3; test: Antitumor activity against human PC3 cells assessed as cell growth at 10 uM after 48 hrs by sulforhodamine B assay; settings: PC-3, 48 h, read-out: Activity
[31] = tested on: SNB-19; test: Antitumor activity against human SNB19 cells assessed as cell growth at 10 uM after 48 hrs by sulforhodamine B assay; settings: SNB-19, 48 h, read-out: Activity
[32] = tested on: U-251; test: Antitumor activity against human U251 cells assessed as cell growth at 10 uM after 48 hrs by sulforhodamine B assay; settings: U-251, 48 h, read-out: Activity
[33] = tested on: Rattus norvegicus; test: Antiinflammatory activity in Wister albino rat assessed as inhibition of carrageenan-induced paw oedema at 50 mg/kg, ip administered 1 hr before carrageenan challenge measured after 1 hr of induction of inflammation relative to control; settings: route intraperitoneal
[34] = tested on: Rattus norvegicus; test: Antiinflammatory activity in Wister albino rat assessed as inhibition of carrageenan-induced paw oedema at 50 mg/kg, ip administered 1 hr before carrageenan challenge measured after 4 hrs of induction of inflammation relative to control; settings: route intraperitoneal
[35] = tested on: Rattus norvegicus; test: Antiinflammatory activity in Wister albino rat assessed as inhibition of carrageenan-induced paw oedema at 50 mg/kg, ip administered 1 hr before carrageenan challenge measured after 24 hrs of induction of inflammation relative to control; settings: route intraperitoneal
[36] = tested on: Rattus norvegicus; test: Antiinflammatory activity in Wister albino rat assessed as inhibition of carrageenan-induced paw oedema at 50 mg/kg, ip administered 1 hr before carrageenan challenge measured after 4 hrs of induction of inflammation relative to indomethacin; settings: route intraperitoneal

Row | Structure (SMILES) | growth at 10 µM [1] [%] | growth at 10 µM [2] [%] | growth at 10 µM [3] [%] | growth at 10 µM [4] [%] | growth at 10 µM [5] [%] | growth at 10 µM [6] [%] | growth at 10 µM [7] [%] | growth at 10 µM [8] [%] | growth at 10 µM [9] [%] | growth at 10 µM [10] [%] | growth at 10 µM [11] [%] | growth at 10 µM [12] [%] | growth at 10 µM [13] [%] | growth at 10 µM [14] [%] | growth at 10 µM [15] [%] | growth at 10 µM [16] [%] | growth at 10 µM [17] [%] | growth at 10 µM [18] [%] | growth at 10 µM [19] [%] | growth at 10 µM [20] [%] | further results
1 | CN1C/C(=C\c2ccc(-c3cccs3)cc2)C(=O)[C@]2(C1)[C@@H](c1ccc(-c3cccs3)cc1)CN(C)[C@@]21C(=O)N(C)c2ccccc21 | 47.1 | 58.8 | 58 | 26.1 | 49.4 | 30.6 | 62.1 | 56.1 | 45.2 | 53.8 | 52.4 | 33.4 | 37.7 | 22.7 | 81.4 | 37.3 | 103 | 22.6 | 27.2 | 46.5 | growth at 10 µM [21]: 56.5%; growth at 10 µM [22]: 55.6%; growth at 10 µM [23]: 64.3%; growth at 10 µM [24]: 45.4%; growth at 10 µM [25]: 76.4%; growth at 10 µM [26]: 68.6%; growth at 10 µM [27]: 80%; growth at 10 µM [28]: 64.6%; growth at 10 µM [29]: 47.6%; growth at 10 µM [30]: 17.8%; growth at 10 µM [31]: 65.3%; growth at 10 µM [32]: 62.8%; inhibition in vivo at 50 mg/kg [33]: 84.7%; inhibition in vivo at 50 mg/kg [34]: 69.8%; inhibition in vivo at 50 mg/kg [35]: 74.3%; inhibition in vivo at 50 mg/kg [36]: 124%
2 | COc1ccc(/C=C2\CN(C)C[C@@]3(C2=O)[C@@H](c2ccccc2)CN(C)[C@@]32C(=O)Nc3ccccc32)cc1 | 64.2 | 69.9 | 63 | 50.4 | 50.2 | 26.8 | 50.8 | 58.1 | 37.7 | 47.8 | 59.4 | 58.9 | 36.5 | 31.6 | 79.4 | 52.7 | 92.5 | 21.5 | 17.2 | 32.5 | growth at 10 µM [21]: 49.1%; growth at 10 µM [22]: 57.8%; growth at 10 µM [23]: 58.4%; growth at 10 µM [24]: 40.4%; growth at 10 µM [25]: 58.7%; growth at 10 µM [26]: 60.7%; growth at 10 µM [27]: 76.3%; growth at 10 µM [28]: 70.3%; growth at 10 µM [29]: 47.8%; growth at 10 µM [30]: 21%; growth at 10 µM [31]: 61.6%; growth at 10 µM [32]: 52.1%; inhibition in vivo at 50 mg/kg [33]: 80.1%; inhibition in vivo at 50 mg/kg [34]: 78.7%; inhibition in vivo at 50 mg/kg [35]: 52.9%; inhibition in vivo at 50 mg/kg [36]: 139%
